Common to all, as to assay: DTP human tumour cell line panel, 48 h
Assay [1] has as its system 786-0 renal.
Assay [2] relates to ACHN renal.
Assay [3] concerns HS 578T breast.
Assay [4] deals with IGROV1 ovarian.
The subject of assay [5] is KM12 colon.
For assay [6], the system named is M14 melanoma.
Assay [7] relates to MCF7 breast.
The subject of assay [8] is SF-295 CNS.
The test system of assay [9] is SNB-75 CNS.
For assay [10], the system named is SW-620 colon.

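Grown in 96-well plates, cells were treated for 48 hours with each compound at five concentrations. Insufficient inhibition: endpoint recorded as highest concentration tested. At the GI50, growth is halved. TGI denotes the concentration required for complete inhibition of growth.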

Turning to `COc1ccc(Cc2ccccc2C(=O)O)c2ccccc12`, the TGI in assay [1] is more than 100 µM; in [2] it was more than 100 µM; in [3] it was 57.8 µM; in assay [4], 65.1 µM; in [5], 42.9 µM; in [6], more than 100 µM. In addition, the TGI in assay [7] was more than 100 µM; in assay [8] it was 93 µM; in [9], more than 100 µM; in assay [10], more than 100 µM.
For `CC1=C(C(=O)Nc2ccc(F)c(Cl)c2)C(c2cccc(Cl)c2)NC(=O)N1` (centres undefined), the GI50 is 17.4 µM in assay [1]; 18.3 µM in assay [2]; 12.9 µM in [3]; 12.4 µM in [4]; 20.6 µM in assay [5]; 15.8 µM in [6]. The GI50 in assay [7] is 19.8 µM; in assay [8] it was 20.2 µM; in assay [9], 6.2 µM; in assay [10], 18.9 µM. Also, the TGI in assay [1] worked out at 35.3 µM; in [2] it was 46.4 µM; in assay [3] it was 37.7 µM; in [4], 31.3 µM; in [5], 38.7 µM; in assay [6] it was 31.7 µM. The concentration for total growth inhibition (TGI) in assay [7] was 46 µM; in [8], 50.9 µM; in assay [9], 25.5 µM; in assay [10], 40.7 µM.
Consider `Nc1nc(Cl)nc2c1ncn2C1O[C@H](CO)[C@@H](O)[C@@H]1F` (some centres undefined), for which the GI50 in assay [1] is 0.092 µM; in assay [2], 0.33 µM; in [3], more than 94.2 µM; in assay [4], more than 73.5 µM; in [5], 29.7 µM; in [6] it was 0.0876 µM. The GI50 in assay [7] is 0.185 µM; in assay [8], 2.87 µM; in assay [9], 2.25 µM; in [10], 0.888 µM. The TGI in assay [1] was 0.486 µM; in [3], more than 100 µM; in assay [4], more than 100 µM; in assay [5], more than 100 µM; in assay [6] it was 0.292 µM; in [7], more than 100 µM. In addition, the TGI in assay [8], in [9] and in [10] was more than 100 µM each time.
Turning to `O=Nc1c(-c2cccc([N+](=O)[O-])c2)nc2ncccn12`, the GI50 in [1] is 17.6 µM; in assay [2] it was 8.73 µM; in [3], 12.8 µM; in assay [4], 10.3 µM; in assay [5], 12.4 µM; in assay [6], 12 µM. In addition, the GI50 in [7] is 3.51 µM; in assay [8], 21.9 µM; in assay [9], 10.9 µM; in [10], 2.08 µM. In addition, the TGI is 54.7 µM in assay [1]; 23.2 µM in assay [2]; 47.4 µM in [3]; 23.4 µM in assay [4]; 26.8 µM in [5]; 26.8 µM in assay [6]. Moreover, the TGI in [7] is 22.6 µM; in [8] it was 66.5 µM; in assay [9], 23.8 µM; in assay [10], 6.03 µM.
As to `NCCOc1ccccn1`, the TGI in assay [1], in assay [2], in assay [3], in assay [4], in assay [5] and in assay [6] was more than 100 µM each time. For the same compound, the TGI in assay [7], in assay [8], in assay [9] and in assay [10] was more than 100 µM in each case.

The record behind these values is PubChem BioAssay (NCI).
